Values quoted from earlier work, collected in patent publication US20050009744A1, “Treatment of congestive heart failure” (priority 2001, published 2005).

Details: Lysko et al, J Cardiovasc Pharmacol 2000

COc1ccccc1OCCNCC(O)COc1cccc2[nH]c3ccccc3c12 (stereo not shown) [Carvedilol, carvedilol]
antioxidant activity: far greater antioxidant activity than e.g. metoprolol
